From PubChem BioAssay (NCI)
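Interpolation was linear, between the two tested concentrations surrounding the appropriate level; five concentrations were tested over 48 hours in 96-well plates. TGI marks complete inhibition of growth.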

These compounds were tested on OVCAR-4 ovarian (assay: NCI anticancer screen, dose series, 48 h).

Point of comparison: `COc1cc2c(cc1OC)[C@H]1CN3CCC[C@H]3C=C1c1ccc(OC)c(O)c1-2`, TGI 0.00362 µM. Against it:
- Cn1ccnc1C(O)(c1nccn1C)c1nccn1C — higher, > 100 µM
- CC12CCC3C(CCC4CC(OC(=O)Cc5ccc(N(CCCl)CCCl)cc5)CCC43C)C1CCC(=O)N2 (stereo not drawn) — 8100-fold higher, 29.3 µM
- CCN(CC)CCCNC(=O)c1ccc([N+](=O)[O-])cc1O — higher, > 100 µM
- CN(Cc1ccccc1)c1cc(=O)n(C)c(=O)[nH]1 — higher, > 100 µM
- COc1ccc(-c2c3c([nH]c(=S)c2C#N)CC(C)(C)CC3=O)cc1 — higher, > 100 µM
- CC(=O)Oc1cc(C(F)(F)F)ccc1C(=O)OC1(C)OC(=O)c2ccc(C(F)(F)F)cc2O1 (stereo not drawn) — higher, > 100 µM
- Cc1cn([C@@H]2C[C@H](CO)[C@@H](O)C2)c(=O)[nH]c1=O — higher, > 100 µM
- CC1CN=C(N(C(=O)Nc2ccc(F)c(Cl)c2)c2ccccc2)S1 (stereo not drawn) — higher, > 100 µM
- C=Cc1ccc(C)[n+](C[Si](C)(C)O[Si](C)(C)C[n+]2cc(C=C)ccc2C)c1 — higher, > 100 µM
- O=c1[nH]cnc(NC2C=C(CO)C(O)C2O)c1[N+](=O)[O-] (stereo not drawn) — higher, > 100 µM
- O=C(NC(COC(=O)C(Cc1ccccc1)NC(=O)c1ccccc1)Cc1ccccc1)c1ccccc1 (stereo not drawn) — higher, > 50 µM
- CC(=O)OCC1OC(n2cc(I)c(=O)[nH]c2=O)C(OC(C)=O)C(OC(C)=O)C1OC(C)=O (stereo not drawn) — higher, > 100 µM
- COc1ccc(/C=C2\C[C@H]3[C@@H]4CCC5=C/C(=N/O)CC[C@]5(C)[C@H]4CC[C@]3(C)\C2=N\O)cc1OC — higher, > 100 µM
- C(=Nc1ccc(-c2nc3ccccc3o2)cc1)c1ccco1 — higher, > 100 µM
- CC(C(=O)N1C(=O)N(C(=O)C(C)C(O)c2ccccc2)C2CCCCC21)C(O)c1ccccc1 (stereo not drawn) — higher, > 100 µM
- O=C1NCCS(=O)(=O)N[C@@H](CC2=CC=CCC2)C(=O)N2CCCC12 (stereo partly drawn) — higher, > 100 µM
- CC(C)=CCC/C(C)=C/COC(C)(C)C1=CCC(C)CC1 (stereo not drawn) (tested in a mixture with another compound) — higher, > 100 µM
- O=C(Nc1ccccc1F)c1cc2ccc(O)cc2oc1=Nc1ccccc1F — 1100-fold higher, 3.94 µM
- N/C(=N\S(=O)(=O)c1c(C(F)(F)F)cccc1C(F)(F)F)Nc1ccc(Cl)cc1 — higher, > 100 µM
- Clc1ccc(CSCCc2ccncc2)cc1Cl — 27000-fold higher, 98.7 µM
- CCCCn1cnc2c(c(CC#N)nn2-c2ccccc2)c1=N — higher, > 100 µM
- COc1ccc(-c2oc(/C=N/NC(N)=S)c([N+](=O)[O-])c2-c2ccc(OC)c(OC)c2)cc1OC — 17000-fold higher, 61.6 µM
- CCN1CCCC(NCc2c3ccccc3c(CNC3CCCN(CC)C3)c3ccccc23)C1 (stereo not drawn) — 5000-fold higher, 18 µM
- COc1c(O)c2c3c(c(C)cc(O)c3c1O)C(=O)C(O)(C(C)(C)C(C)=O)C2=O (stereo not drawn) — higher, > 100 µM
- Nc1nc(N)c(N=O)c(Nc2ccc(Br)cc2)n1 — higher, > 100 µM
- C[C@]12CC[C@@H]3c4ccc(O)cc4CC[C@H]3[C@@H]1C/C(=C\c1ccncc1)[C@@H]2O — higher, > 100 µM
- O=c1ccn(C2OC(CO)C(P(=O)(O)O)C2O)c(=O)[nH]1 (stereo not drawn) — higher, > 100 µM
- CCC1=CC2CN3Cn4c(c(COCc5c6n(c7ccccc57)CN5CC7C=C(CC)C5C6(C(=O)OC)C7)c5ccccc54)C(C(=O)OC)(C2)C13 — higher, > 100 µM
- O=C(Cc1ccccc1)NN1C(=O)/C(=C\c2ccccc2)SC1=Nc1ccccc1 — higher, > 100 µM
- COc1ccc(CC2c3c(cc(OC)c(OC)c3OC)CCN2C)cc1OC (stereo not drawn) — higher, > 100 µM

Each compound was assayed on SR leukemia (assay: NCI anticancer screen, dose series, 48 h).

Point of comparison: `CC12CCC3C(CCC4CC(OC(=O)Cc5ccc(N(CCCl)CCCl)cc5)CCC43C)C1CCC(=O)N2` (stereo not drawn), TGI 16.8 µM. Against it:
- Cn1ccnc1C(O)(c1nccn1C)c1nccn1C — higher, > 100 µM
- COc1ccc(-c2c3c([nH]c(=S)c2C#N)CC(C)(C)CC3=O)cc1 — higher, > 100 µM
- COc1cc2c(cc1OC)[C@H]1CN3CCC[C@H]3C=C1c1ccc(OC)c(O)c1-2 — 3800-fold lower, 0.00437 µM
- C=Cc1ccc(C)[n+](C[Si](C)(C)O[Si](C)(C)C[n+]2cc(C=C)ccc2C)c1 — higher, > 100 µM
- O=c1[nH]cnc(NC2C=C(CO)C(O)C2O)c1[N+](=O)[O-] (stereo not drawn) — higher, > 100 µM
- O=C(NC(COC(=O)C(Cc1ccccc1)NC(=O)c1ccccc1)Cc1ccccc1)c1ccccc1 (stereo not drawn) — higher, > 50 µM
- CC(=O)OCC1OC(n2cc(I)c(=O)[nH]c2=O)C(OC(C)=O)C(OC(C)=O)C1OC(C)=O (stereo not drawn) — higher, > 100 µM
- COc1ccc(/C=C2\C[C@H]3[C@@H]4CCC5=C/C(=N/O)CC[C@]5(C)[C@H]4CC[C@]3(C)\C2=N\O)cc1OC — higher, > 100 µM
- C(=Nc1ccc(-c2nc3ccccc3o2)cc1)c1ccco1 — higher, > 100 µM
- CC(C(=O)N1C(=O)N(C(=O)C(C)C(O)c2ccccc2)C2CCCCC21)C(O)c1ccccc1 (stereo not drawn) — higher, > 100 µM
- O=C1NCCS(=O)(=O)N[C@@H](CC2=CC=CCC2)C(=O)N2CCCC12 (stereo partly drawn) — higher, > 100 µM
- CC(C)=CCC/C(C)=C/COC(C)(C)C1=CCC(C)CC1 (stereo not drawn) (tested in a mixture with another compound) — 2.1-fold higher, 36.1 µM
- O=C(Nc1ccccc1F)c1cc2ccc(O)cc2oc1=Nc1ccccc1F — 3.1-fold lower, 5.37 µM
- N/C(=N\S(=O)(=O)c1c(C(F)(F)F)cccc1C(F)(F)F)Nc1ccc(Cl)cc1 — higher, > 100 µM
- CC(C)(C)OC(=O)NCCC(N)=S — higher, > 100 µM
- Nc1nc(N)c(N=O)c(Nc2ccc(Br)cc2)n1 — higher, > 100 µM
- O=c1ccn(C2OC(CO)C(P(=O)(O)O)C2O)c(=O)[nH]1 (stereo not drawn) — higher, > 100 µM
- CCC1=CC2CN3Cn4c(c(COCc5c6n(c7ccccc57)CN5CC7C=C(CC)C5C6(C(=O)OC)C7)c5ccccc54)C(C(=O)OC)(C2)C13 — higher, > 100 µM

These compounds were tested on SF-268 CNS (assay: NCI anticancer screen, dose series, 48 h).

Point of comparison: `CC12CCC3C(CCC4CC(OC(=O)Cc5ccc(N(CCCl)CCCl)cc5)CCC43C)C1CCC(=O)N2` (stereo not drawn), TGI 31.1 µM. Against it:
- Cn1ccnc1C(O)(c1nccn1C)c1nccn1C — higher, > 100 µM
- CCN(CC)CCCNC(=O)c1ccc([N+](=O)[O-])cc1O — higher, > 100 µM
